Measurements: ChEMBL document CHEMBL1142295, “A potential new prodrug for the treatment of cystinosis: design, synthesis and in-vitro evaluation” (Bioorg Med Chem Lett, 2008)
Calls of active or inactive are those of the source. No cut-off for these calls is given here.

Experiment: Depletion of lysosomal cystine in cystinotic fibroblasts GM00008 at 50 uM after 72 hrs
Type: functional, cell-based
Details: Fibroblast

Row | Structure (SMILES) | Activity
1 | NCCS | Active
2 | CCCCCCCCCC(=O)NCCSSCCNC(=O)CCCCCCCCC | Active
